From ChEMBL document CHEMBL5537174, “Discovery of Potent SOS1 PROTACs with Effective Antitumor Activities against NCI-H358 Tumor Cells In Vitro/In Vivo” (J Med Chem, 2024) come the findings set out here.

Structures are written as SMILES. Activity calls are given as the source filed them. The rule behind the calls is not given here.

One series deals with SOS1-KRAS (Homo sapiens, UniProt Q07889). In words: Inhibition of SOS1/KRAS G12C mutant (unknown origin). Type of series: protein-complex assay.
Series [1] concerns NCI-H358. In words: Antiproliferative activity against human NCI-H358 cells assessed as inhibition of cell proliferation incubated for 7 days by celltiter-glo 3D assay. Type of series: functional, cell-based. Particulars: NCI-H358, 168 h. On the technique in general: Cellular ATP, detected with luciferase, serves as a proxy for viable cell number.
For series [2], the target named is T1, Protein cereblon/Son of sevenless homolog 1 (Homo sapiens, UniProt Q07889+Q96SW2). In words: PROTAC activity at CRBN/SOS1 in human NCI-H358 cells assessed as induction of SOS1 degradation incubated for 6 hrs by Western blotting analysis. The format is cell-based. Particulars: read-out: DC50.
Target sequence in this assay (Q07889 whole entry): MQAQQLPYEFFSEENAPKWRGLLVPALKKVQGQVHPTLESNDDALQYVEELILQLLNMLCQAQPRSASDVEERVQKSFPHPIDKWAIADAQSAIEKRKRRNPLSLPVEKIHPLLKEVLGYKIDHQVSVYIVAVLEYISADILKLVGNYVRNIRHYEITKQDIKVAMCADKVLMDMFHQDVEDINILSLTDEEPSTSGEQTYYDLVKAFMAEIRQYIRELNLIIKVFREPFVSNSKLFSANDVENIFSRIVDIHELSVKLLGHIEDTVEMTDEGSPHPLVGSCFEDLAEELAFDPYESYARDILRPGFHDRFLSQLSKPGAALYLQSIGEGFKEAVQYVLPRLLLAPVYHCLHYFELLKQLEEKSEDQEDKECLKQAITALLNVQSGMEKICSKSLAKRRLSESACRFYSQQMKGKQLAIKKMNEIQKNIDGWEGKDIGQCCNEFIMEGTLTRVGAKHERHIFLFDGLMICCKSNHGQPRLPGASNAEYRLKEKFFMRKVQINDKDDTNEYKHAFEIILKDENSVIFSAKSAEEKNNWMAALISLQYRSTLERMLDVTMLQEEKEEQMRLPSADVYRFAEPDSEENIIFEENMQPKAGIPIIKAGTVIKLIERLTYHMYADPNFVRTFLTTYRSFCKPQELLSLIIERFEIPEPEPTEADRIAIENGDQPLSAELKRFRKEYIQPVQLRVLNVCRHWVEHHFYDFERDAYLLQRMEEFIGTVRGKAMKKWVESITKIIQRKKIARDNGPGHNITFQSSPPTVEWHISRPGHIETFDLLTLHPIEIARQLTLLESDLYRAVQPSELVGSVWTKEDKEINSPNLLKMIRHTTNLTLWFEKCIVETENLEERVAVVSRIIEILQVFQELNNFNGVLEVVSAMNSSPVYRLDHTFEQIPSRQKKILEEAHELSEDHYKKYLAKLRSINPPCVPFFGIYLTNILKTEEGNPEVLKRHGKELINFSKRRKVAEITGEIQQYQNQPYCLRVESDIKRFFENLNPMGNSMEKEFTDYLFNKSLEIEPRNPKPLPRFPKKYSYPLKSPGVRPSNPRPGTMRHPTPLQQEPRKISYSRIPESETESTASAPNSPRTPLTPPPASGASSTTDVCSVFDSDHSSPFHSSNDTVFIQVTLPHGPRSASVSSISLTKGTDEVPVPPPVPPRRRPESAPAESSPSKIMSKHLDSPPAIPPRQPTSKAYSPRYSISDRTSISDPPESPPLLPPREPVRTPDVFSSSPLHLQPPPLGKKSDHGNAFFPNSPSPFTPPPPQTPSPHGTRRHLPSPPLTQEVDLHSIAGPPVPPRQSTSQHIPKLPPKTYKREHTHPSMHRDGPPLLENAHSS
Target sequence in this assay (Q96SW2 whole entry): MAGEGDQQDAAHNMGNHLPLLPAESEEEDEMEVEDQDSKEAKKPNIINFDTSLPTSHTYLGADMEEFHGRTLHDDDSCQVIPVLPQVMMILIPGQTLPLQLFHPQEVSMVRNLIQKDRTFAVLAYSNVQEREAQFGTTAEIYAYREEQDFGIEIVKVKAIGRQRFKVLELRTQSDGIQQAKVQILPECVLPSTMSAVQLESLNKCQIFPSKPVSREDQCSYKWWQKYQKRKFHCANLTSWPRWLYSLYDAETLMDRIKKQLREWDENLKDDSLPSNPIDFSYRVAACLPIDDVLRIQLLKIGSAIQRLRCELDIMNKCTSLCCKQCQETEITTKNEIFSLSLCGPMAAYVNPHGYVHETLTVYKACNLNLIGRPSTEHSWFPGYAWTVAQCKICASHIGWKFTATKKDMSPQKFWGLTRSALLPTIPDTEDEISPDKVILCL
Series [3] relates to NCI-H358. In words: Antitumor activity against human NCI-H358 cells xenografted in BALB/c nude mouse assessed as tumor growth inhibition at 30 mg/kg, ip measured twice daily for 21 days. Particulars: NCI-H358, 504 h, time 21 day, read-out: TGI. The format is functional. In general terms: In xenograft studies the graft and the host belong to different species.
The subject of another series is DLD-1. The series can be described thus: Antiproliferative activity against human DLD-1 cells harboring G13D mutant assessed as inhibition of cell proliferation incubated for 7 days by celltiter-glo 3D assay. The format is functional, cell-based. Particulars: DLD-1, 168 h.
Series [4] has as its system NCI-H358. In words: Antiproliferative activity against human NCI-H358 cells assessed as reduction in cell viability.
Another series has as its system NCI-H441. In words: Antiproliferative activity against human NCI-H441 cells harboring G12V mutant assessed as inhibition of cell proliferation incubated for 7 days by celltiter-glo 3D assay. Type of series: functional, cell-based. Particulars: NCI-H441, 168 h.
Series [5] can be described thus: Antiproliferative activity against human GP2d cells harboring G12D mutant assessed as inhibition of cell proliferation incubated for 7 days by celltiter-glo 3D assay. Type of series: functional, cell-based. Particulars: 168 h.
The nature of series [6]: Toxicity in BALB/c nude mouse xenografted with human NCI-H358 cells assessed as body weight loss at 30 mg/kg, ip measured every 3 days for 21 days. The format is organism-based. Particulars: in vivo, 504 h, time 21 day.
The test system of series [7] is NCI-H358. The series can be described thus: Antiproliferative activity against human NCI-H358 cells harboring G12C mutant assessed as inhibition of cell proliferation incubated for 7 days by celltiter-glo 3D assay. Type of series: functional, cell-based. Particulars: NCI-H358, 168 h.
A short description of series [8]: AUC (0 to infinity) in BALB/c nude mouse at 10 mg/kg, ip measured upto 24 hrs by LC-MS/MS analysis. Type of series: ADME, organism-based. Particulars: in vivo.
Series [9] addresses T1, Protein cereblon/Son of sevenless homolog 1. In words: PROTAC activity at CRBN/SOS1 in human NCI-H358 cells assessed as induction of SOS1 degradation at > 1 uM incubated for 6 hrs by Western blotting analysis. Type of series: cell-based.
Target sequence in this assay (Q07889 whole entry, looked up): as the sequence (Q07889 whole entry) above
Target sequence in this assay (Q96SW2 whole entry, looked up): as the sequence (Q96SW2 whole entry) above
A short description of series [10]: Tmax in BALB/c nude mouse at 10 mg/kg, ip measured upto 24 hrs by LC-MS/MS analysis. The format is ADME, organism-based. Particulars: in vivo.
A short description of series [11]: Half life in BALB/c nude mouse at 10 mg/kg, ip measured upto 24 hrs by LC-MS/MS analysis. Type of series: ADME, organism-based. Particulars: in vivo.
Series [12] can be described thus: AUC (0 to t) in BALB/c nude mouse at 10 mg/kg, ip measured upto 24 hrs by LC-MS/MS analysis. The format is ADME, organism-based. Particulars: in vivo.
Series [13] is described as follows: Cmax in BALB/c nude mouse at 10 mg/kg, ip measured upto 24 hrs by LC-MS/MS analysis. The format is ADME, organism-based. Particulars: in vivo.
Series [14] has as its system NCI-H358. In words: Potency index, ratio of test compound IC50 to BI3406 IC50 for antiproliferative activity against human NCI-H358 cells assessed as inhibition of cell proliferation incubated for 7 days by celltiter-glo 3D assay. The format is functional. Particulars: time 7 day.
For series [15], the target named is T1, Protein cereblon/Son of sevenless homolog 1. The series can be described thus: PROTAC activity at CRBN/SOS1 in human NCI-H358 cells assessed as induction of SOS1 degradation at 0.1 to 1 uM incubated for 6 hrs by Western blotting analysis. The format is cell-based. Particulars: dose 0.1-1 µM. (In general: A western blot detects proteins with antibodies after separation by electrophoresis.)
Target sequence in this assay (Q07889 whole entry, looked up): as the sequence (Q07889 whole entry) above
Target sequence in this assay (Q96SW2 whole entry, looked up): as the sequence (Q96SW2 whole entry) above

Series [16] concerns the target Voltage-gated inwardly rectifying potassium channel KCNH2 (Homo sapiens, UniProt Q12809). The series can be described thus: Inhibition of hERG at -80 mV holding potential by whole cell patch clamp recording assay. Type of series: toxicity.
In the next series the target is Cytochrome P450 3A4 (Homo sapiens, UniProt P08684). In words: Inhibition of CYP3A4 in human liver microsome preincubated with compound for 5 mins followed by NADPH addition and measured after 5 mins by LC-MS/MS analysis. The format is ADME, microsomes.
Chain of Cytochrome P450 3A4 (P08684 whole entry): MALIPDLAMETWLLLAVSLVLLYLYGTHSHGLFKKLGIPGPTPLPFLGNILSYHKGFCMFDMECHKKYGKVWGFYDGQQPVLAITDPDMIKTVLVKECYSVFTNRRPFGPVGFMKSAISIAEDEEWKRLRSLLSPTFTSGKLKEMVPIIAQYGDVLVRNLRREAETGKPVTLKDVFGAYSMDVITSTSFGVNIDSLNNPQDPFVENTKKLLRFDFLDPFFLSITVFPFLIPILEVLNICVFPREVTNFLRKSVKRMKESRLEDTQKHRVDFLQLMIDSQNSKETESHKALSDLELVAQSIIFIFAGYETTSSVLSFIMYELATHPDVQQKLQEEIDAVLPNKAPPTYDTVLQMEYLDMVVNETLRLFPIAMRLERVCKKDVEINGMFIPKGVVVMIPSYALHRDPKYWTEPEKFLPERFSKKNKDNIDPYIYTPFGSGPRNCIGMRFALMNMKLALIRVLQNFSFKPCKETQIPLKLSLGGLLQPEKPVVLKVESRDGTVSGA

Chain of Voltage-gated inwardly rectifying potassium channel KCNH2 (Q12809 whole entry): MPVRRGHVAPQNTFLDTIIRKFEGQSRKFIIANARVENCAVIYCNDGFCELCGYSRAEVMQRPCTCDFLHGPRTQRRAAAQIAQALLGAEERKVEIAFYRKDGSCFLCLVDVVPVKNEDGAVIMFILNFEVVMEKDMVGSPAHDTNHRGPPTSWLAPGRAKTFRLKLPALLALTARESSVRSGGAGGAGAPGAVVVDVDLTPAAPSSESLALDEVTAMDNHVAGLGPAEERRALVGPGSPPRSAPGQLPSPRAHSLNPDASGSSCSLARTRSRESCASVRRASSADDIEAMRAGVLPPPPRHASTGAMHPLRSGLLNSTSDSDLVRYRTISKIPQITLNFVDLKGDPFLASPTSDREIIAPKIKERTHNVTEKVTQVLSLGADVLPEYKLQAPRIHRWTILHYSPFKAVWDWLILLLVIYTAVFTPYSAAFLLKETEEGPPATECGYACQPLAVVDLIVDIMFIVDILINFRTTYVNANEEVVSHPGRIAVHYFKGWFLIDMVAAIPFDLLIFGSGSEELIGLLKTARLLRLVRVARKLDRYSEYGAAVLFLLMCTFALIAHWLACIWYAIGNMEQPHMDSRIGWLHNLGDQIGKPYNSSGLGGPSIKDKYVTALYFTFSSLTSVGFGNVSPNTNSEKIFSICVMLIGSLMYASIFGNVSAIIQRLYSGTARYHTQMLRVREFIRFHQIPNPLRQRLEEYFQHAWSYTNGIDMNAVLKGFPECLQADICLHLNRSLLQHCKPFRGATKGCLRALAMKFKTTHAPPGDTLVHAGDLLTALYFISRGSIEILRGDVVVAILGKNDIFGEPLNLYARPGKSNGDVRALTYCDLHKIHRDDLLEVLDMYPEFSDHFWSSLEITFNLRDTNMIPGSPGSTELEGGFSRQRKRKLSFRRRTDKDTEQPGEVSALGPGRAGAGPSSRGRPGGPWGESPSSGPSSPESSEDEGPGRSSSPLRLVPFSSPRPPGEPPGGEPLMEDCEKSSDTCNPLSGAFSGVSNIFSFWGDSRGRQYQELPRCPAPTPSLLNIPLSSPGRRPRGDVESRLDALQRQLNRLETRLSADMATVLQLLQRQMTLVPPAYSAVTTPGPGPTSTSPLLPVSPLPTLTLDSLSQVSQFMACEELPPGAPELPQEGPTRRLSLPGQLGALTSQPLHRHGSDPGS

As usually defined, the IC50 is the concentration needed to halve the response being measured. For the compound `CNCC1(COc2cc3c(N[C@H](C)c4cc(N)cc(C(F)(F)F)c4)nc(C)nc3cc2OC)CC1`, the IC50 against SOS1-KRAS turned out to be 10 nM; in the series with NCI-H358 [1] it was 102 nM.

By DC50 is commonly meant the concentration giving 50% degradation. With `COc1cc2nc(C)nc(N[C@H](C)c3cccc(C(F)F)c3F)c2cc1OCC1(CN(C)C(=O)CCCCCCNc2cccc3c2C(=O)N(C2CCC(=O)NC2=O)C3=O)CC1` (stereo partly specified), in series [2], the 50% degradation concentration (DC50) is 540 nM. Further, in the series on NCI-H358 [1], the concentration for half-maximal inhibition (IC50) worked out at 216 nM.

Turning to `COc1cc2nc(C)nc(N[C@H](C)c3cc(N)cc(C(F)(F)F)c3)c2cc1O[C@H]1CCOC1`, the inhibition in vivo at 30 mg/kg in the series on NCI-H358 [3] came to 39.4%. In addition, the IC50 was 102 nM with DLD-1; 24 nM in the series on NCI-H358 [4]; 68 nM in the series with NCI-H441; 17 nM in series [5]; 26 nM with NCI-H358 [1]; 26 nM in the series on NCI-H358 [7]. Further, the Activity result in series [6] was “Non-Toxic”.

One may read the AUC(0-inf) as the area under the concentration-time curve extrapolated to infinity. Lower therefore signals low exposure. In general, Tmax refers to the time at which the peak concentration occurs. What is called half-life is the time in which the quantity being followed falls by half. Lower therefore signals rapid decline. A word on the AUC(0-t): it is exposure summed from dosing to a finite time, without extrapolation to infinity. Read a high AUC(0-t) as more exposure. In general, Cmax refers to the peak of the concentration-time curve. With `COc1cc2nc(C)nc(N[C@H](C)c3cc(N)cc(C(F)(F)F)c3)c2cc1OCC1(CN(C)C(=O)CCCCCCNc2cccc3c2C(=O)N(C2CCC(=O)NC2=O)C3=O)CC1` (stereo partly specified), in series [8], the AUC(0-inf) was determined as 4380 ng·h/mL. Also, in series [9], the outcome was inactive. Besides, the Tmax in [10] is 1 h. In the series on NCI-H358 [3], the inhibition in vivo at 30 mg/kg was determined as 58.8%. For the same compound, the IC50 is 63 nM in the series on DLD-1; 43 nM with NCI-H441; 2150 nM in series [5]; greater than 30000 nM in [16]; 5 nM in the series on NCI-H358 [1]; 5 nM in the series with NCI-H358 [7]. Also, at Cytochrome P450 3A4, the IC50 turned out to be 320 nM. Moreover, the half-maximal degradation concentration (DC50) in series [2] turned out to be 13 nM. Moreover, the half-life in series [11] is 4.05 h. This compound also had an area under the curve AUC(0-t) at 24 h in [12] of 4370 ng·h/mL. In addition, the Cmax in series [13] came out at 1870 ng/mL. Further, the Activity result in series [6] is “Non-Toxic”. Moreover, the “Ratio IC50” value in the series on NCI-H358 [14] is on record as 5. For the same compound, in series [15], the result was Active.

Consider `COc1cc2nc(C)nc(N[C@H](C)c3cc(N)cc(C(F)(F)F)c3)c2cc1OCC1(CN(C)C(=O)CCCCCCNc2ccc(F)c3c2C(=O)N(C2CCC(=O)NC2=O)C3=O)CC1` (stereo partly specified), for which, in series [2], the half-maximal degradation concentration (DC50) worked out at 63 nM. The half-maximal inhibitory concentration (IC50) in the series on NCI-H358 [1] came to 23 nM.

As for `COc1cc2nc(C)nc(N[C@H](C)c3cc(N)cc(C(F)(F)F)c3)c2cc1OCC1(CN(C)C(=O)CCCOC2CCC(Nc3cccc4c3C(=O)N(C3CCC(=O)NC3=O)C4=O)CC2)CC1` (stereo partly specified), the DC50 in series [2] is 35 nM. Besides, the concentration for half-maximal inhibition (IC50) in the series on NCI-H358 [1] came out at 15 nM.

Take `COc1cc2nc(C)nc(N[C@H](C)c3cc(N)cc(C(F)(F)F)c3)c2cc1OCC1(CN(C)C(=O)C2CCN(CCNc3cccc4c3C(=O)N(C3CCC(=O)NC3=O)C4=O)CC2)CC1` (stereo partly specified): in series [2], the DC50 amounted to 44 nM. The IC50 in the series on NCI-H358 [1] is 18 nM.
